Assay results taken from patent US7622469B2, “2,4-diamino-1,3,5-triazine derivatives” (Hamari Chemicals, Ltd., priority 2002, dated 2009).

Tests used:
Test in all cases: Antibacterial activity test (MIC)
Settings in all cases: Mueller-Hinton Broth, 37° C., 20 to 24 hours
MRSA 97-115 = format: cell-based, methicillin-resistant Staphylococcus aureus
Experimental: (§1) Regarding compounds obtained in respective Working Examples, in order to investigate antibacterial activity, minimal inhibitory concentration (MIC) was determined according to a standard method of Japanese Society of Chemotherapy.
(§2) As a test bacterium, nine kinds of S. aureus 209PJC, MRSA 97-115, MRSA KM 97-53, MRSA KM97-108, VRE 49, E. coli NIHJ JC-2, P. aeruginosa PAO-1, P. aeruginosa No. 12, P. aeruginosa KM97-5 were used and, as a medium, Mueller-Hinton Broth (DIFCO) was used. One platinum loop of a test bacterium was inoculated into 20 ml of a medium, and static culture was carried out at 37° C. for 16 to 20 hours, and then each bacterium species was diluted with a sterilized physiological saline to 10^5/ml, which was used as a test bacterium solution.
(§3) Then, each compound was dissolved in methanol, subjected to ½ stepwise dilution with a medium to prepare a medium for measuring sensitivity, and each 2 ml was dispensed into a test tube. A compound concentration in a medium was adjusted to 100 μg/ml and its 2^n-fold (n=−10 to 1).
(§4) Numerical values in Tables represent MIC expressed in μg/ml unit.

E. coli NIHJ JC-2 = format: cell-based
Experimental: as §1, §2, §3, §4

P. aeruginosa PAO-1 = format: cell-based
Experimental: as §1, §2, §3, §4

S. aureus 209PJC = format: cell-based
Experimental: as §1, §2, §3, §4

| SMILES | minimal inhibitory concentration (MIC) (MRSA 97-115) [mg/L] | minimal inhibitory concentration (MIC) (E. coli NIHJ JC-2) [mg/L] | minimal inhibitory concentration (MIC) (P. aeruginosa PAO-1) [mg/L] | minimal inhibitory concentration (MIC) (S. aureus 209PJC) [mg/L] |
| --- | --- | --- | --- | --- |
| CCCCCCCCCC1N=C(N)NC(Nc2ccc(C(C)(C)C)cc2)=N1.Cl (centres unmarked) [compound 23] | 1.6 | >100 | >100 | 0.8 |
| CCCCCCCCCCNC1=NC(C)(C)N=C(NCc2ccc(OC)cc2)N1.Cl [Example 1] | 0.4 | 12.5 | 25 | 0.4 |
| CCCCCCCCNC1=NC(C)(C)N(c2cnc3ccccc3c2)C(N)=N1.Cl.Cl [compound 81] | 1.6 | 12.5 | 50 | 0.8 |
| CCCCCCCCCCCNC1=NC(C)(C)N=C(NCc2ccccc2)N1.O=C(O)C(=O)O [compound 51] | 0.8 | 50 | 100 | 0.4 |
| CCCCCCCCCCNC1=NC(C)(C)N=C(NCc2ccc(OC)cc2)N1.O=C(O)C(=O)O [compound 40] | 0.8 | 25 | 25 | 0.4 |
| CCCCCCCCCCCC1(C)N=C(N)N=C(N)N1c1ccc(Cl)cc1.Cl (racemic) [compound 45] | 0.4 | >100 | >100 | 0.4 |
| CCCCCCCCNC1=NC(C)(C)N=C(NCCCCCC)N1.O=C(O)C(O)C(O)C(O)C(O)CO [compound 76] | 1.6 | 25 | 50 | 0.8 |
| CCCCCCCCCCNC1=NC(C)(C)N=C(NCc2ccc(C(=O)O)cc2)N1.Cl [compound 60] | 6.3 | >100 | >100 | 3.1 |
| CCCCCCCCCCCNC1=NC(C)(C)N=C(NCc2ccc(O)cc2)N1.Cl [compound 9] | 1.6 | 100 | >100 | 0.4 |
| CCCCCCCCCC1N=C(N)NC(Nc2ccc(OC(F)(F)F)cc2)=N1.Cl (centres unmarked) [compound 29] | 1.6 | >100 | >100 | 0.8 |
| CCCCCCCCCCNC1=NC(C)(C)N=C(NCCc2ccccc2)N1.O=C(O)CC(=O)O [compound 55] | 0.8 | 12.5 | 50 | 0.4 |
| CC(=O)O.CCCCCCCCNC1=NC(C)(C)N=C(NCc2ccccc2)N1 [compound 52] | 1.6 | 12.5 | 25 | 0.8 |
| CC(=O)O.CCCCCCCNC1=NC(C)(C)N=C(NCc2ccc(C)cc2)N1 [compound 59] | 1.6 | 25 | 50 | 0.8 |

The next lines start with the values.

| minimal inhibitory concentration (MIC) (MRSA 97-115) [mg/L] | minimal inhibitory concentration (MIC) (E. coli NIHJ JC-2) [mg/L] | minimal inhibitory concentration (MIC) (P. aeruginosa PAO-1) [mg/L] | minimal inhibitory concentration (MIC) (S. aureus 209PJC) [mg/L] | SMILES |
| --- | --- | --- | --- | --- |
| 1.6 | 50 | 50 | 1.6 | CCCCCCCCC1N=C(N)N=C(N)N1c1cc(C(C)(C)C)ccc1OC.Cl (centres unmarked) [compound 24] |
| 1.6 | 50 | 50 | 0.4 | CCCCCCCCCCCCC1N=C(N)N=C(N)N1CCc1ccc(OC)cc1.Cl (racemic) [15(2)] |
| 6.3 | 100 | 100 | 6.3 | CCCCCCCCNC1=NC(C)(C)N(c2cccc3ccccc23)C(N)=N1.Cl [compound 63] |
| 0.8 | 12.5 | 12.5 | 0.8 | CC(=O)O.CCCCCCCCCNC1=NC(C)(C)N=C(Nc2ccccc2)N1 [compound 62] |
| 3.1 | 50 | 100 | 3.1 | CCCCCCCCCCNC1=NC(C)(C)N(c2ccc(OC)cc2)C(N)=N1.Cl [compound 14] |
| 0.8 | 12.5 | 100 | 0.8 | CC(=O)O.CCCCCCCCNC1=NCN=C(NCCCCCCCC)N1 [compound 74] |
| 0.8 | 6.3 | 25 | 0.4 | CCCCCCCCCCC1N=C(N)NC(NCc2ccc(C(F)(F)F)cc2)=N1.Cl (racemic) [18(1)] |
| 6.3 | >100 | >100 | 6.3 | CCCCCCCCCNC1=NC(C)(C)N(c2ccccc2)C(N)=N1.Cl [compound 61] |
| 1.6 | 50 | 100 | 0.8 | CC(=O)O.CCCCCCCNC1=NC2(CCCC2)N=C(NCc2ccccc2)N1 [compound 54] |
| 1.6 | 100 | 100 | 0.8 | CC(=O)O.CCCCCCCCNC1=NC(C)(C)N=C(NCCCCCCC)N1 [compound 67] |
| 1.6 | 25 | 25 | 0.4 | CCCCCCCCCCCCC1N=C(N)N=C(N)N1Cc1ccc(OC)cc1.Cl (racemic) [16(2)] |
| 1.6 | 25 | 25 | 0.8 | CC(=O)O.CCCCCCCCNC1=NC(C)(C)N=C(NCCc2ccccc2)N1 [compound 57] |
| 3.1 | 50 | 100 | 1.6 | CCCCCCCNC1=NC(CC)(CC)N=C(NCc2ccccc2)N1.Cl [compound 53] |
